Source: ChEMBL document CHEMBL5505966, “Synthesis and pharmacological characterization of conformationally restricted 2-amino-Adipic acid analogs and carboxycyclopropyl glycines as selective metabotropic glutamate 2 receptor agonists” (Eur J Med Chem, 2024)
pEC50: −log10 of the molar value. Calls of active or inactive are those of the source. The rule behind the calls is not given here.

What was measured:
[1] = target: Metabotropic glutamate receptor 3 (Homo sapiens, UniProt Q14832); experiment: Agonist activity at human recombinant mGluR3 receptor assessed as inhibition of forskolin-stimulated [3H]cAMP accumulation incubated for 20 mins by SPA kit analysis; assay type: functional
[2] = target: Metabotropic glutamate receptor 4 (Rattus norvegicus) (UniProt P31423); experiment: Agonist activity at rat mGluR4 receptor expressed in HEK293 cells at 30 uM by IP-1 HTRF assay; assay type: functional, cell-based
[3] = target: Metabotropic glutamate receptor 5 (Rattus norvegicus) (UniProt P31424); experiment: Antagonist activity at rat mGluR5 receptor expressed in HEK293 cells by IP-1 HTRF assay; assay type: functional, cell-based
[4] = target: Metabotropic glutamate receptor 7 (Rattus norvegicus) (UniProt P35400); experiment: Antagonist activity at rat mGluR7 receptor expressed in HEK293 cells by IP-1 HTRF assay; assay type: functional, cell-based
[5] = target: Metabotropic glutamate receptor 6 (Rattus norvegicus) (UniProt P35349); experiment: Antagonist activity at rat mGluR6 receptor expressed in HEK293 cells by IP-1 HTRF assay; assay type: functional, cell-based
[6] = target: Metabotropic glutamate receptor 3 (Rattus norvegicus) (UniProt P31422); experiment: Antagonist activity at rat mGluR3 receptor expressed in HEK293 cells by IP-1 HTRF assay; assay type: functional, cell-based
[7] = target: Metabotropic glutamate receptor 6 (Rattus norvegicus) (UniProt P35349); experiment: Agonist activity at rat mGluR6 receptor expressed in HEK293 cells at 30 uM by IP-1 HTRF assay; assay type: functional, cell-based
[8] = target: Metabotropic glutamate receptor 3 (Rattus norvegicus) (UniProt P31422); experiment: Agonist activity at rat mGluR3 receptor expressed in HEK293 cells at 30 uM by IP-1 HTRF assay; assay type: functional, cell-based
[9] = target: Metabotropic glutamate receptor 1 (Rattus norvegicus) (UniProt P23385); experiment: Antagonist activity at rat mGluR1 receptor expressed in HEK293 cells by IP-1 HTRF assay; assay type: functional, cell-based
[10] = target: Metabotropic glutamate receptor 1 (Rattus norvegicus) (UniProt P23385); experiment: Agonist activity at rat mGluR1 receptor expressed in HEK293 cells at 30 uM by IP-1 HTRF assay; assay type: functional, cell-based
[11] = target: Metabotropic glutamate receptor 7 (Rattus norvegicus) (UniProt P35400); experiment: Agonist activity at rat mGluR7 receptor expressed in HEK293 cells at 30 uM by IP-1 HTRF assay; assay type: functional, cell-based
[12] = target: Metabotropic glutamate receptor 8 (Rattus norvegicus) (UniProt P70579); experiment: Agonist activity at rat mGluR8 receptor expressed in HEK293 cells at 30 uM by IP-1 HTRF assay; assay type: functional, cell-based
[13] = target: Metabotropic glutamate receptor 2 (Rattus norvegicus) (UniProt P31421); experiment: Antagonist activity at rat mGluR2 receptor expressed in HEK293 cells by IP-1 HTRF assay; assay type: functional, cell-based
[14] = target: Metabotropic glutamate receptor 2 (Rattus norvegicus) (UniProt P31421); experiment: Agonist activity at rat mGluR2 receptor expressed in HEK293 cells at 30 uM by IP-1 HTRF assay; assay type: functional, cell-based
[15] = target: Metabotropic glutamate receptor 8 (Rattus norvegicus) (UniProt P70579); experiment: Antagonist activity at rat mGluR8 receptor expressed in HEK293 cells by IP-1 HTRF assay; assay type: functional, cell-based
[16] = target: Metabotropic glutamate receptor 5 (Rattus norvegicus) (UniProt P31424); experiment: Agonist activity at rat mGluR5 receptor expressed in HEK293 cells at 30 uM by IP-1 HTRF assay; assay type: functional, cell-based
[17] = target: Metabotropic glutamate receptor 4 (Rattus norvegicus) (UniProt P31423); experiment: Antagonist activity at rat mGluR4 receptor expressed in HEK293 cells by IP-1 HTRF assay; assay type: functional, cell-based
[18] = target: Metabotropic glutamate receptor 2 (Rattus norvegicus, UniProt P31421); experiment: Agonist activity at rat mGluR2 receptor expressed in HEK293 cells by IP-1 HTRF assay; assay type: functional, cell-based; details: for pEC50: read-out: EC50; for EC50: read-out: pEC50 (converted)
[19] = target: Metabotropic glutamate receptor 2 (Homo sapiens, UniProt Q14416); experiment: Agonist activity at human recombinant mGluR2 receptor assessed as inhibition of forskolin-stimulated [3H]cAMP accumulation incubated for 20 mins by SPA kit analysis; assay type: functional
[20] = target: Metabotropic glutamate receptor 4 (Rattus norvegicus) (UniProt P31423); experiment: Agonist activity at rat mGluR4 receptor expressed in HEK293 cells at 100 uM by IP-1 HTRF assay; assay type: functional, cell-based
[21] = target: Metabotropic glutamate receptor 1 (Rattus norvegicus) (UniProt P23385); experiment: Agonist activity at rat mGluR1 receptor expressed in HEK293 cells at 100 uM by IP-1 HTRF assay; assay type: functional, cell-based
[22] = target: Metabotropic glutamate receptor 5 (Rattus norvegicus) (UniProt P31424); experiment: Agonist activity at rat mGluR5 receptor expressed in HEK293 cells at 100 uM by IP-1 HTRF assay; assay type: functional, cell-based
[23] = target: Metabotropic glutamate receptor 6 (Rattus norvegicus) (UniProt P35349); experiment: Agonist activity at rat mGluR6 receptor expressed in HEK293 cells at 100 uM by IP-1 HTRF assay; assay type: functional, cell-based
[24] = target: Metabotropic glutamate receptor 7 (Rattus norvegicus) (UniProt P35400); experiment: Agonist activity at rat mGluR7 receptor expressed in HEK293 cells at 100 uM by IP-1 HTRF assay; assay type: functional, cell-based
[25] = target: Metabotropic glutamate receptor 8 (Rattus norvegicus) (UniProt P70579); experiment: Agonist activity at rat mGluR8 receptor expressed in HEK293 cells at 100 uM by IP-1 HTRF assay; assay type: functional, cell-based
[26] = target: Metabotropic glutamate receptor 3 (Rattus norvegicus) (UniProt P31422); experiment: Agonist activity at rat mGluR3 receptor expressed in HEK293 cells at 100 uM by IP-1 HTRF assay; assay type: functional, cell-based
[27] = target: Metabotropic glutamate receptor 8 (Rattus norvegicus, UniProt P70579); experiment: Agonist activity at rat mGluR8 receptor expressed in HEK293 cells by IP-1 HTRF assay; assay type: functional, cell-based
[28] = target: Metabotropic glutamate receptor 1 (Rattus norvegicus, UniProt P23385); experiment: Agonist activity at rat mGluR1 receptor expressed in HEK293 cells by IP-1 HTRF assay; assay type: functional, cell-based; details: read-out: EC50
[29] = target: Metabotropic glutamate receptor 3 (Rattus norvegicus, UniProt P31422); experiment: Agonist activity at rat mGluR3 receptor expressed in HEK293 cells by IP-1 HTRF assay; assay type: functional, cell-based
[30] = target: Metabotropic glutamate receptor 5 (Rattus norvegicus, UniProt P31424); experiment: Agonist activity at rat mGluR5 receptor expressed in HEK293 cells by IP-1 HTRF assay; assay type: functional, cell-based; details: read-out: EC50
[31] = target: Metabotropic glutamate receptor 6 (Rattus norvegicus, UniProt P35349); experiment: Agonist activity at rat mGluR6 receptor expressed in HEK293 cells by IP-1 HTRF assay; assay type: functional, cell-based; details: read-out: EC50
[32] = target: Metabotropic glutamate receptor 7 (Rattus norvegicus, UniProt P35400); experiment: Agonist activity at rat mGluR7 receptor expressed in HEK293 cells by IP-1 HTRF assay; assay type: functional, cell-based
[33] = target: Metabotropic glutamate receptor 4 (Rattus norvegicus, UniProt P31423); experiment: Agonist activity at rat mGluR4 receptor expressed in HEK293 cells by IP-1 HTRF assay; assay type: functional, cell-based

Chain of Metabotropic glutamate receptor 3 (Rattus norvegicus) (P31422 23-879 limits assumed): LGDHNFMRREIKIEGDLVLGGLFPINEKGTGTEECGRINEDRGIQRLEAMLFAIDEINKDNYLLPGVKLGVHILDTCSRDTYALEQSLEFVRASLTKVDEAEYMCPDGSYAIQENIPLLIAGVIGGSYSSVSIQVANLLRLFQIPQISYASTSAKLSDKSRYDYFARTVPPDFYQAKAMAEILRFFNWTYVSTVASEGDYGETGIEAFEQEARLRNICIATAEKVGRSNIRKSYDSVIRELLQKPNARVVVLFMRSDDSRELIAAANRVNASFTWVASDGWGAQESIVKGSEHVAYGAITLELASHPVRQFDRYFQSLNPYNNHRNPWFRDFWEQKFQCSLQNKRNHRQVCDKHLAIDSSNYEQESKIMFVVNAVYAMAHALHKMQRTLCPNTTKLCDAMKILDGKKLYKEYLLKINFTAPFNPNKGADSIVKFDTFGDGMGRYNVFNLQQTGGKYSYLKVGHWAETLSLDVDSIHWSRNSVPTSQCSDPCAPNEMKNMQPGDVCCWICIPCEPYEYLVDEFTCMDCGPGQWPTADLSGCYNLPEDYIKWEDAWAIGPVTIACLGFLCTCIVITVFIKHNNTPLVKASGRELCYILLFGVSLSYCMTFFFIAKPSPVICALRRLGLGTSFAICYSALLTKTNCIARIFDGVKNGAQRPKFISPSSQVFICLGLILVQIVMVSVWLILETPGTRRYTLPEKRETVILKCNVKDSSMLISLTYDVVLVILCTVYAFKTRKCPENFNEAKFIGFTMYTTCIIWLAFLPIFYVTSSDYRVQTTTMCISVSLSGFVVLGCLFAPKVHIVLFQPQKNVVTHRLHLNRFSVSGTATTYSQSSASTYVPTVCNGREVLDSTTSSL
Chain of Metabotropic glutamate receptor 7 (Rattus norvegicus) (P35400 whole entry): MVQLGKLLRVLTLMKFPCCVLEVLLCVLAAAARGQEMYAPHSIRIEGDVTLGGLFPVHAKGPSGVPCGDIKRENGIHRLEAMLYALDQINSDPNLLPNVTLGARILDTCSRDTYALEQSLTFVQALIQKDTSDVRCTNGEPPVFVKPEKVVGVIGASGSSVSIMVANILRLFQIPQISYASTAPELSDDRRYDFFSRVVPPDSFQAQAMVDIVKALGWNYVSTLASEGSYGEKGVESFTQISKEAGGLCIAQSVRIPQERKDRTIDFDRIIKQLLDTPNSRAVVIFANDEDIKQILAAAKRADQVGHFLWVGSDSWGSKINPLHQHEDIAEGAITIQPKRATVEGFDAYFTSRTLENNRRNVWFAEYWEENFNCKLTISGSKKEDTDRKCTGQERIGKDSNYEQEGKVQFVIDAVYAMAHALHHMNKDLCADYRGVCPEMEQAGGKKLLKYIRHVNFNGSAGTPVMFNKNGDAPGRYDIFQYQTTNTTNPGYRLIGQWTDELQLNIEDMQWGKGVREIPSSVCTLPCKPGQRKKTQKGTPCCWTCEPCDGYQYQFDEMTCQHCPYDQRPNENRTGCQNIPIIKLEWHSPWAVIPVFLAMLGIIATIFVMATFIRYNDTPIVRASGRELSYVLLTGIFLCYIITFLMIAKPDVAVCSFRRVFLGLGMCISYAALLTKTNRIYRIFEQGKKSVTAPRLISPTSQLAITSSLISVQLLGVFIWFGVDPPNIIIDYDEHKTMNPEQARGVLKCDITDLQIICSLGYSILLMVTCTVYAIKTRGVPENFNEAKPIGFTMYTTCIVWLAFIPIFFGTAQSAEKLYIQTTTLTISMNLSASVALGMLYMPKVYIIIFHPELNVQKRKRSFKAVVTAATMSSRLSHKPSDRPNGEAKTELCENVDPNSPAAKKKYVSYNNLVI
Chain of Metabotropic glutamate receptor 6 (Rattus norvegicus) (P35349 whole entry): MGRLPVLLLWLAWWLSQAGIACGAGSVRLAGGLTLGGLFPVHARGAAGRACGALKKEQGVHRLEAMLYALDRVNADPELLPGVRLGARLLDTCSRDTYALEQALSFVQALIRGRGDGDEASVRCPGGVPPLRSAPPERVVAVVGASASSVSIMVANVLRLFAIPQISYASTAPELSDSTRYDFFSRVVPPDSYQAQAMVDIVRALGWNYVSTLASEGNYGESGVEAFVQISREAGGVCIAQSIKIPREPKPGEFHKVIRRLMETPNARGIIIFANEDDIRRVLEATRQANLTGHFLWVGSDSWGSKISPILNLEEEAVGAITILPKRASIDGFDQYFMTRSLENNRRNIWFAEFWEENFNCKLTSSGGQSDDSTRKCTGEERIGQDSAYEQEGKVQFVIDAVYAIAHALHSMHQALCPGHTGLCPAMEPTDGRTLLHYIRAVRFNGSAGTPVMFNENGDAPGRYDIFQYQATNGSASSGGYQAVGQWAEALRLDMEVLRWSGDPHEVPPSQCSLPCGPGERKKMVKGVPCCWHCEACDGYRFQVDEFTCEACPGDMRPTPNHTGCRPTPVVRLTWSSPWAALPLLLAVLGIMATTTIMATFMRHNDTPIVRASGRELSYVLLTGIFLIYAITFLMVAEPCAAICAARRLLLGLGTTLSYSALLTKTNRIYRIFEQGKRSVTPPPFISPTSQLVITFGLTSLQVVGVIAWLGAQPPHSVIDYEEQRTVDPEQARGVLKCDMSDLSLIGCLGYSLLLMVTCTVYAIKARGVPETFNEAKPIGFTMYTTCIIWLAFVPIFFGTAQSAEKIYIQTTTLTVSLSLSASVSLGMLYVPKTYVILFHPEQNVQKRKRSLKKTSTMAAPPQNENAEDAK
Chain of Metabotropic glutamate receptor 3 (Homo sapiens, UniProt Q14832) (Q14832 whole entry): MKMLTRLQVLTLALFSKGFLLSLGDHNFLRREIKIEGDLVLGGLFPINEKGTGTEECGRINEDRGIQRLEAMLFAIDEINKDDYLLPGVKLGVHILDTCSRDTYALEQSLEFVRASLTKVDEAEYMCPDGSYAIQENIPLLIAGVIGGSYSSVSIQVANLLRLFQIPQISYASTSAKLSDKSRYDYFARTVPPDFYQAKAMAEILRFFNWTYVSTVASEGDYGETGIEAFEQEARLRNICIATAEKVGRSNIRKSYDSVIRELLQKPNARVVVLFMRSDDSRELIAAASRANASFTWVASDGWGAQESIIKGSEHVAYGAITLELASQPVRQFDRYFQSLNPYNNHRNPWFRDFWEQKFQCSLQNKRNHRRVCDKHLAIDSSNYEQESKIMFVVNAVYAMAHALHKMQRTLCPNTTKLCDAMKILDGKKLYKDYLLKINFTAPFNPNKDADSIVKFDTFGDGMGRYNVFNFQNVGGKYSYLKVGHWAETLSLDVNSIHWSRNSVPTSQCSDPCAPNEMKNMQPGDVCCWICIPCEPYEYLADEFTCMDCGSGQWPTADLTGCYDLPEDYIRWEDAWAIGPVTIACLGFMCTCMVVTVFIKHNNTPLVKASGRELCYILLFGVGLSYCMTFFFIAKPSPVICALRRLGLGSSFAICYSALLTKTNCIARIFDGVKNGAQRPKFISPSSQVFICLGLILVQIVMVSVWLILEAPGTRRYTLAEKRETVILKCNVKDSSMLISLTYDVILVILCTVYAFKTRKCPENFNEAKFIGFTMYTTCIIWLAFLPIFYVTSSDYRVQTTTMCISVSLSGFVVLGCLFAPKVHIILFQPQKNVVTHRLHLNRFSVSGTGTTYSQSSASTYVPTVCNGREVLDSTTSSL
Chain of Metabotropic glutamate receptor 1 (Rattus norvegicus) (P23385 19-1199 limits assumed): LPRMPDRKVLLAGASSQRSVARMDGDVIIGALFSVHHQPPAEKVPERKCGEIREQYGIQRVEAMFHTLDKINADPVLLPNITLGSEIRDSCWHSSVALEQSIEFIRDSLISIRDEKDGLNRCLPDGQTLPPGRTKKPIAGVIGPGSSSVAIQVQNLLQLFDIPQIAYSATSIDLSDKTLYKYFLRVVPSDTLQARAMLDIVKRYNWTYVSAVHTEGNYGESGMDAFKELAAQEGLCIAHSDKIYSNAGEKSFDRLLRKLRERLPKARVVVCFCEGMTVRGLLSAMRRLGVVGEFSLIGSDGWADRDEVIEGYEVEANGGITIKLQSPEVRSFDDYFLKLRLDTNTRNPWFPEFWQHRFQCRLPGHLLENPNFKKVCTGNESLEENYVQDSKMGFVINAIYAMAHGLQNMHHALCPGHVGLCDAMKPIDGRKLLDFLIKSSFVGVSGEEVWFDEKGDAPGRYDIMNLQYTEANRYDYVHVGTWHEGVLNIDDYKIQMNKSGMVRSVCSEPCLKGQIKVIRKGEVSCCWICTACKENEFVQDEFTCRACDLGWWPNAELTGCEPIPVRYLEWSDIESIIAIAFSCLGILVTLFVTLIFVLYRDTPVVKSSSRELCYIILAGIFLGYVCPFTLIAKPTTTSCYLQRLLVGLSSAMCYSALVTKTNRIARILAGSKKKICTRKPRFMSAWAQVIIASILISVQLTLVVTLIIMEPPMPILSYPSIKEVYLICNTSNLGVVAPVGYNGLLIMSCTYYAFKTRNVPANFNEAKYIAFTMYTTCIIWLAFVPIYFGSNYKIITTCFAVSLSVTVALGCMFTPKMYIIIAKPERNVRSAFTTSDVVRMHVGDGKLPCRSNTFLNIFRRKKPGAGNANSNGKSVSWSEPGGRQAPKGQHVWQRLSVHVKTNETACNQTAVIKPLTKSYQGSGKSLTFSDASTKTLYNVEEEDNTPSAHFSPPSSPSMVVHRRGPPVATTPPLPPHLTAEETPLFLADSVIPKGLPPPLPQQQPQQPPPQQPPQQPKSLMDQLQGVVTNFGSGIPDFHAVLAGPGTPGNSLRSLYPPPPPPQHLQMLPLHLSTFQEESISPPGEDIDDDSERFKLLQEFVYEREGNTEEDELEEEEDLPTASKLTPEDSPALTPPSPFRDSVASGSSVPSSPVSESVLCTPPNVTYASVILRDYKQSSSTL
Chain of Metabotropic glutamate receptor 7 (P35400 whole entry): as the sequence (P35400 whole entry) above
Chain of Metabotropic glutamate receptor 6 (P35349 whole entry): as the sequence (P35349 whole entry) above

Row | Compound | Activity [2] | inhibition [3] | inhibition [4] | inhibition [5] | inhibition [6] | Activity [7] | Activity [8] | inhibition [9] | Activity [10] | Activity [11] | Activity [12] | inhibition [13] | inhibition [15] | Activity [16] | inhibition [17] | also measured
1 | N[C@@]1(C(=O)O)CC[C@@H](C(=O)O)C1 | – | – | – | – | – | – | – | – | – | – | – | – | – | – | – | pEC50 [1]: 3.07
2 | C[C@]1(C[C@H](N)C(=O)O)C[C@@H]1C(=O)O | inactive | inactive | inactive | inactive | inactive | inactive | inactive | inactive | inactive | inactive | inactive | inactive | inactive | inactive | inactive | Activity [14]: inactive
3 | CC1(C[C@H](N)C(=O)O)CC1C(=O)O (stereo partly specified) | – | inactive | inactive | inactive | inactive | – | – | inactive | – | – | – | inactive | inactive | – | inactive | –
4 | N[C@@H](CCC(=O)O)C(=O)O [GLUTAMIC ACID] | – | – | – | – | – | – | – | – | – | – | – | – | – | – | – | pEC50 [1]: 5.05
5 | N[C@H](C(=O)O)[C@H]1[C@@H](CO)[C@@H]1C(=O)O | – | – | – | – | – | – | – | – | – | – | – | – | – | – | – | pEC50 [1]: 7.42
6 | C[C@]1(C(=O)O)C[C@@H]1[C@H](N)C(=O)O | inactive | inactive | inactive | inactive | inactive | inactive | inactive | inactive | inactive | inactive | inactive | inactive | inactive | inactive | inactive | pEC50 [18]: 5.39
7 | C[C@H]1[C@H](C(=O)O)[C@H]1[C@H](N)C(=O)O | – | – | – | – | – | – | – | – | – | – | – | – | – | – | – | pEC50 [19]: 8.10; pEC50 [1]: 7.42
8 | C[C@@]1(C(=O)O)C[C@@H]1C[C@H](N)C(=O)O (mixture of isomers) | – | inactive | inactive | inactive | inactive | – | – | inactive | – | – | – | inactive | inactive | – | inactive | Activity [20]: inactive; Activity [21]: inactive; Activity [22]: inactive; Activity [23]: inactive; pEC50 [18]: 5.00; EC50 [18]: 15.8 µM; Activity [24]: inactive; Activity [25]: inactive; Activity [26]: inactive
9 | CC[C@]1(C(=O)O)C[C@@H]1[C@H](N)C(=O)O | inactive | inactive | inactive | inactive | inactive | inactive | inactive | inactive | inactive | inactive | inactive | inactive | inactive | inactive | inactive | Activity [14]: inactive
10 | C[C@@]1(C[C@H](N)C(=O)O)C[C@H]1C(=O)O | inactive | inactive | inactive | inactive | inactive | inactive | inactive | inactive | inactive | inactive | inactive | inactive | inactive | inactive | inactive | Activity [14]: inactive
11 | CC[C@@]1(C(=O)O)C[C@H]1[C@H](N)C(=O)O | – | inactive | inactive | inactive | inactive | – | – | inactive | – | – | – | inactive | inactive | – | inactive | pEC50 [27]: < 4.52; pEC50 [28]: < 4.52; pEC50 [29]: < 4.52; pEC50 [30]: < 4.52; pEC50 [18]: 5.75; EC50 [18]: 1.82 µM; pEC50 [31]: 4.58; pEC50 [32]: < 4.52; pEC50 [33]: < 4.52
12 | C[C@]1(C(=O)O)C[C@H]1C(N)C(=O)O (mixture of isomers) | inactive | inactive | inactive | inactive | inactive | inactive | inactive | inactive | inactive | inactive | inactive | inactive | inactive | inactive | inactive | Activity [14]: inactive
13 | N[C@@H](CCP(=O)(O)O)C(=O)O | – | – | – | – | – | – | – | – | – | – | – | – | – | – | – | pEC50 [27]: ~4.52; pEC50 [31]: 5.60; pEC50 [32]: ~4.52; pEC50 [33]: ~4.52
14 | N[C@H](C(=O)O)[C@H]1C[C@@H]1C(=O)O | – | – | – | – | – | – | – | – | – | – | – | – | – | – | – | pEC50 [19]: 6.52; pEC50 [1]: 6.22
15 | C[C@]1(C[C@H](N)C(=O)O)C[C@H]1C(=O)O | inactive | inactive | inactive | inactive | inactive | inactive | inactive | inactive | inactive | inactive | inactive | inactive | inactive | inactive | inactive | Activity [14]: inactive
16 | C[C@@]1(C(=O)O)C[C@@H]1C(N)C(=O)O (mixture of isomers) | inactive | inactive | inactive | inactive | inactive | inactive | inactive | inactive | inactive | inactive | inactive | inactive | inactive | inactive | inactive | pEC50 [18]: 5.05
17 | C[C@@]1(C[C@H](N)C(=O)O)C[C@@H]1C(=O)O | inactive | inactive | inactive | inactive | inactive | inactive | inactive | inactive | inactive | inactive | inactive | inactive | inactive | inactive | inactive | pEC50 [18]: 5.12
